Experiment [1] deals with A549. In words: Cytotoxicity against human A549 cells by SRB assay. Type of experiment: functional, cell-based. For orientation: In SRB staining, fixed cells bind dye roughly in proportion to their protein.
Another experiment has as its system SK-MEL-2. In words: Cytotoxicity against human SK-MEL-2 cells by SRB assay. The experiment is classed as functional, cell-based.
A further experiment has as its system SK-OV-3. In words: Cytotoxicity against human SKOV3 cells by SRB assay. Type of experiment: functional, cell-based.
Another experiment concerns XF498. In words: Cytotoxicity against human XF498 cells by SRB assay. Type of experiment: functional, cell-based.
The test system of a further experiment is HCT-15. In words: Cytotoxicity against human HCT15 cells by SRB assay. Type of experiment: functional, cell-based.
In a further experiment the test system is HepG2. In words: Cytotoxicity against human HepG2 cells after 72 hrs by MTT assay. The settings on record: HepG2, 72 h. Type of experiment: functional, cell-based.
For the next experiment, the system named is SH-SY5Y. In words: Cytotoxicity against human SH-SY5Y cells after 72 hrs by MTT assay. Type of experiment: functional, cell-based.
The nature of experiment [2]: Cytotoxicity against mouse S17 cells after 72 hrs by MTT assay. The experiment is classed as functional, cell-based. The settings on record: S17, 72 h.
A short description of experiment [3]: Antioxidant activity assessed as ONOO scavenging activity. Type of experiment: functional.
For another experiment, the system named is A2780. The experiment can be described thus: Cytotoxicity against human A2780 cells after 72 hrs by MTT assay. The experiment is classed as functional, cell-based. The settings on record: A2780, 72 h. On the technique in general: Formazan colour is commonly taken as a measure of viable cells.
Another experiment relates to A-431. In words: Cytotoxicity against human A431 cells after 72 hrs by MTT assay. Type of experiment: functional, cell-based. The settings on record: A-431, 72 h.
Experiment [4] concerns HeLa. In words: Cytotoxicity against human HeLa cells after 72 hrs by MTT assay. The experiment is classed as functional, cell-based.
Experiment [5] relates to MCF7. In words: Cytotoxicity against human MCF7 cells after 72 hrs by MTT assay. Type of experiment: functional, cell-based. Particulars: MCF7, 72 h.
The test system of experiment [6] is HeLa. In words: Cytotoxicity against human HeLa cells assessed as reduction in cell viability incubated for 48 hrs by MTT assay. The experiment is classed as functional, cell-based.
Experiment [7] concerns MCF7. The experiment can be described thus: Cytotoxicity against human MCF7 cells assessed as reduction in cell viability incubated for 48 hrs by MTT assay. The experiment is classed as functional, cell-based. The settings on record: MCF7, 48 h.
Experiment [8] has as its system HeLa. The experiment can be described thus: Cytotoxicity against human HeLa cells assessed as reduction in cell viability after 24 hrs by MTT assay. The experiment is classed as functional, cell-based.
The test system of experiment [9] is MCF7. In words: Antiproliferative activity against human MCF7 cells assessed as reduction in cell viability after 48 hrs by MTT assay. The experiment is classed as functional, cell-based. The settings on record: MCF7, 48 h.
Another experiment has as its system BHY. In words: Antiproliferative activity against human BHY cells assessed as reduction in cell viability after 48 hrs by MTT assay. Type of experiment: functional, cell-based.
The next experiment relates to MIA PaCa-2. The experiment can be described thus: Antiproliferative activity against human MIAPaCa2 cells assessed as reduction in cell viability after 48 hrs by MTT assay. Type of experiment: functional, cell-based. Particulars: MIA PaCa-2, 48 h.
The test system of the next experiment is COLO 205. In words: Antiproliferative activity against human COLO205 cells assessed as reduction in cell viability after 48 hrs by MTT assay. Type of experiment: functional, cell-based. Particulars: COLO 205, 48 h.
Experiment [10] concerns A549. The experiment can be described thus: Antiproliferative activity against human A549 cells assessed as reduction in cell viability after 48 hrs by MTT assay. The experiment is classed as functional, cell-based. The settings on record: A549, 48 h.
A short description of experiment [11]: Cytotoxicity against human YD-10B cells assessed as reduction in cell viability after 48 hr by MTT asssay. The experiment is classed as functional, cell-based.
Another experiment deals with HL-60. In words: Antiproliferative activity against human HL60 cells assessed as reduction in cell viability after 3 days by XTT assay. The experiment is classed as functional, cell-based. Particulars: HL-60, 72 h.
The subject of experiment [12] is PANC-1. The experiment can be described thus: Cytotoxicity against human PANC1 cells assessed as cell viability after 24 hrs by MTT assay relative to control. Type of experiment: functional.
The subject of experiment [13] is CFPAC-1. The experiment can be described thus: Cytotoxicity against human CFPAC-1 cells assessed as cell viability after 24 hrs by MTT assay relative to control. Type of experiment: functional.
Experiment [14] has as its system PANC-1. The experiment can be described thus: Antitumour activity against human PANC1 cells xenografted in ip dosed nude BALB/c mouse assessed as tumor weight for 18 days. Type of experiment: functional.
The test system of experiment [15] is CFPAC-1. The experiment can be described thus: Antitumour activity against human CFPAC-1 cells xenografted in ip dosed nude BALB/c mouse assessed as tumor weight for 18 days. The experiment is classed as functional. (In general: Xenograft models place foreign cells or tissue in a host animal.)

Results on 17 compounds are retold here after ChEMBL document CHEMBL4342436, “Artemisia: a promising plant for the treatment of cancer” (Bioorg Med Chem, 2020).

Broadly, the IC50 is the midpoint of a concentration-inhibition curve.

≈ marks a conversion by molar mass, not a printed value.

With `C=C1C(=O)O[C@@H]2C[C@@]3(C)C=CC(=O)C(C)=C3C[C@H]12`, the IC50 in the experiment on A549 [1], in the experiment with SK-MEL-2, in the experiment with SK-OV-3, with XF498 and in the experiment on HCT-15 was 0.4 to 26.8 µg/mL (≈ 1.64 to 110 µM) throughout.
Turning to `COc1ccc(-c2cc(=O)c3c(O)cc(O)cc3o2)cc1` [ACACETIN], the IC50 with A549 [1], in the experiment with SK-MEL-2, in the experiment with SK-OV-3, in the experiment on XF498 and with HCT-15 was 0.4 to 26.8 µg/mL (≈ 1.41 to 94.3 µM) each time.
With `COc1ccc(-c2oc3cc(OC)c(OC)c(O)c3c(=O)c2OC)cc1OC` [ARTEMETIN], the IC50 (with HepG2; in the experiment with SH-SY5Y; in experiment [2]) was 229 to 233 µM each time.
In the case of `O=C(/C=C/c1ccc(O)c(O)c1)O[C@@H]1C[C@](O)(C(=O)O)C[C@@H](O)[C@H]1O` [CHLOROGENIC ACID], the IC50 in experiment [3] was found to be 0.52 µM.
With `COc1cc(-c2cc(=O)c3c(O)c(OC)c(OC)cc3o2)ccc1O` [CIRSILENEOL], the IC50 in the experiment on A2780, with A-431, in the experiment with HeLa [4] and in the experiment on MCF7 [5] was 33 to 75 µg/mL (≈ 95.8 to 218 µM) throughout.
Turning to `CC1=CC(=O)C2=C(C)CC[C@@H]3[C@H](OC(=O)[C@H]3C)[C@@H]12` [DESACETOXYMATRICARIN], the IC50 in the experiment on A549 [1], in the experiment on SK-MEL-2, in the experiment on SK-OV-3, in the experiment with XF498 and in the experiment with HCT-15 was 0.4 to 26.8 µg/mL (≈ 1.62 to 109 µM) each time.
With `COc1ccc(-c2cc(=O)c3c(O)c(OC)c(OC)cc3o2)cc1O` [EUPATORIN], the values for the IC50 in the experiment with HeLa [6] and with MCF7 [7] were 8.1 to 63.2 µM and 10.3 to 91.9 µM, respectively.
As to `COc1cc(O)c2c(=O)cc(-c3ccc(O)cc3)oc2c1` [GENKWANIN], the IC50 with A549 [1] is 0.4 to 26.8 µg/mL (≈ 1.41 to 94.3 µM); in the experiment on SK-MEL-2 it was 0.4 to 26.8 µg/mL (≈ 1.41 to 94.3 µM); with SK-OV-3, 0.4 to 26.8 µg/mL (≈ 1.41 to 94.3 µM); in the experiment on XF498, 0.4 to 26.8 µg/mL (≈ 1.41 to 94.3 µM); in the experiment with HCT-15 it was 0.4 to 26.8 µg/mL (≈ 1.41 to 94.3 µM); in the experiment with HeLa [6] it was 8.1 to 63.2 µM. Further, the 50% inhibitory concentration (IC50) in the experiment on MCF7 [7] is 10.3 to 91.9 µM; in [3], 1.01 µM.
On to `C=C1C(=O)O[C@@H]2C[C@@]3(C)CCCC(=C)[C@@H]3C[C@H]12` [ISOALANTOLACTONE], for which the IC50 with HeLa [8] is 8.15 µM.
For `COc1cc(-c2oc3cc(O)cc(O)c3c(=O)c2O)ccc1O` [ISORHAMNETIN], the values for the IC50 in the experiment on HeLa [6] and in the experiment on MCF7 [7] were 8.1 to 63.2 µM and 10.3 to 91.9 µM, respectively.
With `COc1cc(O)c2c(=O)c(OC)c(-c3ccc(O)cc3)oc2c1` [KUMATAKENIN], the figures for the IC50 in the experiment with HeLa [6] and with MCF7 [7] were 8.1 to 63.2 µM and 10.3 to 91.9 µM, respectively.
For the compound `C=C(C)[C@@H]1CC[C@]2(C)CC[C@]3(C)[C@H](CC[C@@H]4[C@@]5(C)CC[C@H](O)C(C)(C)[C@@H]5CC[C@]43C)[C@@H]12` [LUPEOL], the IC50 with MCF7 [9], with BHY, in the experiment with MIA PaCa-2, with COLO 205 and with A549 [10] was 25.2 to 88.1 µM in each case.
Regarding `CC(=O)O[C@H]1C(=O)[C@@]2(C)[C@H]([C@H](OC(=O)c3ccccc3)[C@]3(O)C[C@H](OC(=O)[C@H](O)[C@@H](NC(=O)c4ccccc4)c4ccccc4)C(C)=C1C3(C)C)[C@]1(OC(C)=O)CO[C@@H]1C[C@@H]2O` [PACLITAXEL], in [11], the IC50 turned out to be 13.1 µM.
Consider `COc1cc2ccc(=O)oc2cc1OC` [SCOPARONE], for which, in the experiment on HL-60, the IC50 lay within 1.1 to 40.7 µg/mL (≈ 5.33 to 197 µM).
As to `COc1cc2ccc(=O)oc2cc1O` [SCOPOLETIN], the IC50 in experiment [3] was found to be 1.03 µM.
As for `c1cc2c(cc1[C@H]1OC[C@H]3[C@@H]1CO[C@@H]3c1ccc3c(c1)OCO3)OCO2` [SESAMIN], the IC50 (in the experiment with HepG2; with SH-SY5Y; in experiment [2]) was 229 to 233 µM throughout.
Regarding `CC(C)[C@]12O[C@H]1[C@@H]1O[C@]13[C@]1(O[C@H]1C[C@H]1C4=C(CC[C@@]13C)C(=O)OC4)[C@@H]2O` [TRIPTOLIDE], the Activity is recorded as under 10% in the experiment with PANC-1 [12], under 10% in the experiment on CFPAC-1 [13], under 0.4 g in the experiment with PANC-1 [14] and under 0.4 g in the experiment on CFPAC-1 [15].
